This note sets out measurements from US11986471B2, “Compounds and methods of use” (Tango Therapeutics, Inc., priority 2018, dated 2024).

One may read the IC50 as the concentration needed to halve the response being measured.

The target of assay [1] is T1, PRMT5 (Homo sapiens, UniProt O14744).
T1 construct: purchased Viva (custom protein)
Briefly: PRMT5 IC50 assay in the presence of MTA as cofactor. Type of assay: biochemical. To be noted: for IC50: PRMT5, MTA as cofactor. In outline: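 Three cofactor conditions are run: SAM-bound, MTA-bound and cofactor-free enzyme. IC50 is read from each; for the SAM and MTA arms it is divided by 1.5 and 13.5 respectively to give Ki.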

Another assay has as its system HAP1 MTAP-intact. Briefly: SDMA in-cell western assay, HAP1 MTAP-intact cell line. Type of assay: cell-based. As to conditions: Homo sapiens. From the text: Table 1a also indicates IC50 values in an MTAP-isogenic cell line pair for exemplary compounds in an SDMA in-cell western assay (columns 7-8). HAP1 MTAP-intact is a cell line in which endogenous levels of MTAP are expressed, and HAP1 MTAP-deleted is an MTAP-null cell line. […] Compounds with a ratio in the SDMA in-cell western assay of equal to or greater than 3 fold are considered MTAP-selective.

The next assay deals with HAP1 MTAP-deleted. Kind of assay: SDMA in-cell western assay, HAP1 MTAP-deleted cell line. Type of assay: cell-based. To be noted: for IC50: Homo sapiens, HAP1 MTAP-deleted cell line; for MTAP Intact/Deleted Ratio: IC50 ratio HAP1 MTAP-intact / HAP1 MTAP-deleted. From the text: Table 1a also indicates IC50 values in an MTAP-isogenic cell line pair for exemplary compounds in an SDMA in-cell western assay (columns 7-8). HAP1 MTAP-intact is a cell line in which endogenous levels of MTAP are expressed, and HAP1 MTAP-deleted is an MTAP-null cell line.

Assay [2] concerns the target T1, PRMT5. Kind of assay: PRMT5 IC50 assay with no cofactor. It is filed as biochemical. In outline: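 Human PRMT5 inhibition, IC50 in μM; cofactor varied (SAM / MTA / none).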
For assay [3], the target named is T1, PRMT5. Briefly: PRMT5 IC50 assay in the presence of SAM as cofactor. It is filed as biochemical. The procedure, abridged:
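Enzyme: human PRMT5. Conditions: plus SAM, plus MTA, or cofactor-free. Output: IC50 (μM); Ki via IC50/1.5 (SAM) or IC50/13.5 (MTA).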

The mark [4] stands for this setting: ratio between Ki in the presence of SAM and Ki in the presence of MTA.
Setting [5] is: ratio between the Ki in the presence of SAM and the Ki in the presence of MTA.

Each structure is given as a SMILES string.

T1 sequence (O14744 whole entry): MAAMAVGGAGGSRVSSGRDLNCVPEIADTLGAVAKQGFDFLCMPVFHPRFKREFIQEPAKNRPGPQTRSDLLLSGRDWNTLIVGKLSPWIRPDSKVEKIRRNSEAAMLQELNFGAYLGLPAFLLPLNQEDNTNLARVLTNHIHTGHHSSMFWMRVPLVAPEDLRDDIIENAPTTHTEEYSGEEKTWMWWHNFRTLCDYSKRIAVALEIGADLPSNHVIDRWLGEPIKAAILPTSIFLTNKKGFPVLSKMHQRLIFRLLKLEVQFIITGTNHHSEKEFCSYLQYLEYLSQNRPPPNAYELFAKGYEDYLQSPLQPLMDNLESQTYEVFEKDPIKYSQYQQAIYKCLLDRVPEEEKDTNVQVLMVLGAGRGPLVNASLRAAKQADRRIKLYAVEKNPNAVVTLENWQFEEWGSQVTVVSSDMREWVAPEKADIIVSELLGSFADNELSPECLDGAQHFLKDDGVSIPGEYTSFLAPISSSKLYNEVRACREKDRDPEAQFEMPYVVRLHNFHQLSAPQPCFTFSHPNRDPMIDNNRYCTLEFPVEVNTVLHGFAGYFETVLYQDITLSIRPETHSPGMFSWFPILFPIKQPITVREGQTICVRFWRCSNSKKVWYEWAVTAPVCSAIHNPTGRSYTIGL
T1 sequence (Q9BQA1 whole entry partner): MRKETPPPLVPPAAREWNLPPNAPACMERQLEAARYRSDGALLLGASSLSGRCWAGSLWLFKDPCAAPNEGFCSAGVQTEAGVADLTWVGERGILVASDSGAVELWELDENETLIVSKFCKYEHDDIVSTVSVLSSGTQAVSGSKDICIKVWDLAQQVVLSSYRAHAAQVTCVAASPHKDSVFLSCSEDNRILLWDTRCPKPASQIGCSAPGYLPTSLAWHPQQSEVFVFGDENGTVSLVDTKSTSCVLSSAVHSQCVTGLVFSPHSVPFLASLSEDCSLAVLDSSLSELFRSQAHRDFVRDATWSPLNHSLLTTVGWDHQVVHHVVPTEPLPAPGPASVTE

On to `CC(=O)N1CCC(Nc2cc(C(=O)NC[C@H](O)CN3CCc4cc(OCc5conc5C)ccc4C3)ncn2)CC1` [Compound 233, (S)-6-((1-acetylpiperidin-4-yl)amino)-N-(2-hydroxy-3-(6-((3-methylisoxazol-4-yl)methoxy)-3,4-dihydroisoquinolin-2(1H)-yl)propyl)pyrimidine-4-carboxamide], for which the IC50 was 50 to 500 nM at PRMT5 [1]; not below 10000 nM in the assay with HAP1 MTAP-intact; 1000 to 10000 nM in the assay with HAP1 MTAP-deleted; not below 5000 nM at PRMT5 [2] (read-out: No Co-factor IC50); 50 to 500 nM at PRMT5 [3]. The “SAM/MTA Ratio” value at PRMT5 [1] (setting [4]) is “A (a Ki ratio greater than or equal to 10 fold between the Ki in the presence of SAM and the Ki in the presence of MTA)”. In addition, in the assay with HAP1 MTAP-deleted, the “MTAP Intact/Deleted Ratio” value was “C* (an IC50 ratio of less than 3 fold between the IC50 in the HAP1 MTAP-intact cell line and the HAP1 MTAP-deleted cell line)”.

As for `O=C(NC[C@H](O)CN1CCc2cc(OCc3cnco3)ccc2C1)c1ccc(OC2CCN(Cc3ccncc3)CC2)cc1` [Compound 328], the 50% inhibitory concentration (IC50) at PRMT5 [1] is 50 to 500 nM; with HAP1 MTAP-intact, 1000 to 10000 nM; in the assay with HAP1 MTAP-deleted, less than 1000 nM; at PRMT5 [2] (read-out: No Co-factor IC50), 500 to 5000 nM; at PRMT5 [3] it was 50 to 500 nM. The “SAM/MTA Ratio” value on PRMT5 [1] (setting [4]) was “A (a Ki ratio greater than or equal to 10 fold between the Ki in the presence of SAM and the Ki in the presence of MTA)”. Also, the “MTAP Intact/Deleted Ratio” value in the assay on HAP1 MTAP-deleted is “C* (an IC50 ratio of less than 3 fold between the IC50 in the HAP1 MTAP-intact cell line and the HAP1 MTAP-deleted cell line)”.

For `CC(=O)N1CC(Nc2cc(C(=O)NC[C@H](O)CN3CCc4cc(OCc5ocnc5C)ccc4C3)nc(C(C)(C)C)n2)C1` [Compound 564, (S)-6-((1-acetylazetidin-3-yl)amino)-2-(tert-butyl)-N-(2-hydroxy-3-(6-((4-methyloxazol-5-yl)methoxy)-3,4-dihydroisoquinolin-2(1H)-yl)propyl)pyrimidine-4-carboxamide], the IC50 was 50 to 500 nM at PRMT5 [1]; 1000 to 10000 nM with HAP1 MTAP-intact; less than 1000 nM with HAP1 MTAP-deleted; 500 to 5000 nM against PRMT5 [2]; 50 to 500 nM at PRMT5 [3]. Further, the “SAM/MTA Ratio” value on PRMT5 [1] (setting [5]) is “A (a Ki ratio greater than or equal to 10 fold between the Ki in the presence of SAM and the Ki in the presence of MTA)”. For the same molecule, the “MTAP Intact/Deleted Ratio” value in the assay on HAP1 MTAP-deleted was “B* (an IC50 ratio greater than or equal to 3 fold but lower than 10 fold between the IC50 in the HAP1 MTAP-intact cell line and the HAP1 MTAP-deleted cell line)”.

As for `CC(=O)N1CCC(Nc2cc(C(=O)NC[C@H](O)CN3CCc4c(ccc(OCc5cnco5)c4C)C3)ncn2)CC1` [Compound 198, 6-[(1-acetyl-4-piperidyl)amino]-N-[(2S)-2-hydroxy-3-[5-methyl-6-(oxazol-5-ylmethoxy)-3,4-dihydro-1H-isoquinolin-2-yl]propyl]pyrimidine-4-carboxamide], the IC50 is 50 to 500 nM at PRMT5 [1]; not below 10000 nM in the assay with HAP1 MTAP-intact; 1000 to 10000 nM in the assay on HAP1 MTAP-deleted; not below 5000 nM on PRMT5 [2] (read-out: No Co-factor IC50); 50 to 500 nM at PRMT5 [3]. Also, the “SAM/MTA Ratio” value at PRMT5 [1] (setting [4]) was “A (a Ki ratio greater than or equal to 10 fold between the Ki in the presence of SAM and the Ki in the presence of MTA)”. Besides, the “MTAP Intact/Deleted Ratio” value with HAP1 MTAP-deleted is “C* (an IC50 ratio of less than 3 fold between the IC50 in the HAP1 MTAP-intact cell line and the HAP1 MTAP-deleted cell line)”.

As for `O=C(NC[C@H](O)CN1CCc2cc(OCc3cnco3)ccc2C1)c1ccnc(NC2CCN(C(=O)C3CCC3)CC2)c1` [Compound 433, 2-[[1-(cyclobutanecarbonyl)-4-piperidyl]amino]-N-[(2S)-2-hydroxy-3-[6-(oxazol-5-ylmethoxy)-3N-dihydro-1H-isoquinolin-2-yl]propyl]pyridine-4-carboxamide], the IC50 was 50 to 500 nM at PRMT5 [1]; 1000 to 10000 nM in the assay on HAP1 MTAP-intact; less than 1000 nM with HAP1 MTAP-deleted; 500 to 5000 nM against PRMT5 [2]; 50 to 500 nM on PRMT5 [3]. For the same molecule, the “SAM/MTA Ratio” value on PRMT5 [1] (setting [5]) was “A (a Ki ratio greater than or equal to 10 fold between the Ki in the presence of SAM and the Ki in the presence of MTA)”. Further, the “MTAP Intact/Deleted Ratio” value in the assay on HAP1 MTAP-deleted is “B* (an IC50 ratio greater than or equal to 3 fold but lower than 10 fold between the IC50 in the HAP1 MTAP-intact cell line and the HAP1 MTAP-deleted cell line)”.

As to `Cc1ncoc1COc1ccc2c(c1)CCN(C[C@@H](O)CNC(=O)c1cc(NC3CCC3)ncc1Cl)C2` [Compound 607, 5-chloro-2-(cyclobutylamino)-N-[(2S)-2-hydroxy-3-[6-[(4-methyloxazol-5-yl)methoxy]-3,4-dihydro-1H-isoquinolin-2-yl]propyl]pyridine-4-carboxamide], the IC50 on PRMT5 [1] is 50 to 500 nM; in the assay on HAP1 MTAP-intact, less than 1000 nM; with HAP1 MTAP-deleted, less than 1000 nM; on PRMT5 [2] it was not below 5000 nM; on PRMT5 [3], 50 to 500 nM. The “SAM/MTA Ratio” value at PRMT5 [1] (setting [5]) is “A (a Ki ratio greater than or equal to 10 fold between the Ki in the presence of SAM and the Ki in the presence of MTA)”. For the same molecule, the “MTAP Intact/Deleted Ratio” value in the assay with HAP1 MTAP-deleted is “C* (an IC50 ratio of less than 3 fold between the IC50 in the HAP1 MTAP-intact cell line and the HAP1 MTAP-deleted cell line)”.

Regarding `Cc1ncoc1COc1ccc2c(c1C)CCN(C[C@@H](O)CNC(=O)c1ccnc(NC3CCC3)c1)C2` [Compound 272, (S)-2-(cyclobutylamino)-N-(2-hydroxy-3-[5-methyl-6-((4-methyloxazol-5-yl)methoxy)-3N-dihydroisoquinolin-2(1H)-yl)propyl)isonicotinamide], the IC50 on PRMT5 [1] was 50 to 500 nM; in the assay on HAP1 MTAP-intact, not below 10000 nM; with HAP1 MTAP-deleted it was 1000 to 10000 nM; on PRMT5 [2] (read-out: No Co-factor IC50), not below 5000 nM; on PRMT5 [3], 50 to 500 nM. The “SAM/MTA Ratio” value on PRMT5 [1] (setting [4]) was “A (a Ki ratio greater than or equal to 10 fold between the Ki in the presence of SAM and the Ki in the presence of MTA)”. For the same molecule, the “MTAP Intact/Deleted Ratio” value in the assay on HAP1 MTAP-deleted was “C* (an IC50 ratio of less than 3 fold between the IC50 in the HAP1 MTAP-intact cell line and the HAP1 MTAP-deleted cell line)”.

Take `Cc1c(OCc2cn[nH]c2)ccc2c1CCN(C[C@@H](O)CNC(=O)c1ccnc(NC3CCC3)c1)C2` [Compound 254, 2-(cyclobutylamino)-N-[(2S)-2-hydroxy-3-[5-methyl-6-(1H-pyrazol-4-ylmethoxy)-3,4-dihydro-1H-isoquinolin-2-yl]propyl]pyridine-4-carboxamide]: the IC50 at PRMT5 [1] was in the range of 50 to 500 nM; with HAP1 MTAP-intact, 1000 to 10000 nM; in the assay on HAP1 MTAP-deleted it was 1000 to 10000 nM; at PRMT5 [2] (read-out: No Co-factor IC50) it was 500 to 5000 nM; at PRMT5 [3], 500 to 5000 nM. In addition, the “SAM/MTA Ratio” value on PRMT5 [1] (setting [4]) is “A (a Ki ratio greater than or equal to 10 fold between the Ki in the presence of SAM and the Ki in the presence of MTA)”. For the same molecule, the “MTAP Intact/Deleted Ratio” value in the assay with HAP1 MTAP-deleted is “C* (an IC50 ratio of less than 3 fold between the IC50 in the HAP1 MTAP-intact cell line and the HAP1 MTAP-deleted cell line)”.

`CC(C)Cc1cc(C(=O)NC[C@H](O)CN2CCc3cc(OCc4cnco4)ccc3C2)cc(NC2CCC2)n1` [Compound 307, (S)-2-(cyclobutylamino)-N-(2-hydroxy-3-(6-(oxazol-5-ylmethoxy)-3,4-dihydroisoquinolin-2(1H)-yl)propyl)-6-isobutylisonicotinamide]: the half-maximal inhibitory concentration (IC50) is 50 to 500 nM on PRMT5 [1]; 1000 to 10000 nM in the assay on HAP1 MTAP-intact; less than 1000 nM in the assay on HAP1 MTAP-deleted; not below 5000 nM on PRMT5 [2] (read-out: No Co-factor IC50); 500 to 5000 nM on PRMT5 [3]. Also, the “SAM/MTA Ratio” value at PRMT5 [1] (setting [4]) is “A (a Ki ratio greater than or equal to 10 fold between the Ki in the presence of SAM and the Ki in the presence of MTA)”. The “MTAP Intact/Deleted Ratio” value with HAP1 MTAP-deleted was “C* (an IC50 ratio of less than 3 fold between the IC50 in the HAP1 MTAP-intact cell line and the HAP1 MTAP-deleted cell line)”.

As for `CC(C)N1CCN(c2nc(NC3COC3)cc(C(=O)NC[C@H](O)CN3CCc4cc(OCc5cnco5)ccc4C3)n2)CC1` [Compound 296, (S)—N-(2-hydroxy-3-(6-(oxazol-5-ylmethoxy)-3N-dihydroisoquinolin-2(1H)-yl)propyl)-2-(4-isopropylpiperazin-1-yl)-6-(oxetan-3-ylamino)pyrimidine-4-carboxamide], the IC50 on PRMT5 [1] was 50 to 500 nM; with HAP1 MTAP-intact, not below 10000 nM; in the assay on HAP1 MTAP-deleted it was 1000 to 10000 nM; on PRMT5 [2] (read-out: No Co-factor IC50), 500 to 5000 nM; at PRMT5 [3] it was 50 to 500 nM. On PRMT5 [1] (setting [4]), the “SAM/MTA Ratio” value was “A (a Ki ratio greater than or equal to 10 fold between the Ki in the presence of SAM and the Ki in the presence of MTA)”. Also, the “MTAP Intact/Deleted Ratio” value with HAP1 MTAP-deleted is “C* (an IC50 ratio of less than 3 fold between the IC50 in the HAP1 MTAP-intact cell line and the HAP1 MTAP-deleted cell line)”.

Turning to `COc1cnc(NC2CCN(C(C)=O)CC2)cc1C(=O)NC[C@H](O)CN1CCc2cc(OCc3ocnc3C)ccc2C1` [Compound 597, (S)-2-((1-acetylpiperidin-4-yl)amino)-N-(2-hydroxy-3-(6-((4-methyloxazol-5-yl)methoxy)-3,4-dihydroisoquinolin-2(1H)-yl)propyl)-5-methoxyisonicotinamide], the IC50 is less than 50 nM on PRMT5 [1]; 1000 to 10000 nM in the assay on HAP1 MTAP-intact; less than 1000 nM with HAP1 MTAP-deleted; 50 to 500 nM at PRMT5 [2]; 50 to 500 nM at PRMT5 [3]. Moreover, the “SAM/MTA Ratio” value on PRMT5 [1] (setting [5]) was “A (a Ki ratio greater than or equal to 10 fold between the Ki in the presence of SAM and the Ki in the presence of MTA)”. For the same molecule, the “MTAP Intact/Deleted Ratio” value in the assay with HAP1 MTAP-deleted was “B* (an IC50 ratio greater than or equal to 3 fold but lower than 10 fold between the IC50 in the HAP1 MTAP-intact cell line and the HAP1 MTAP-deleted cell line)”.
